The values below come from publication PMC10488149 (International Journal of Molecular Sciences, 2023).

Data set [1] addresses T1, α1-acid glycoprotein (AGP) (Homo sapiens, UniProt P02763). The data set can be described thus: Fluorescence titration. From the text: Fluorescence spectra were collected using an emission detector module of the ChirascanPlus spectropolarimeter (APL), fixing the PMU of the detector at 600 mV. For every measurement, a 1 cm quartz cell, which is suitable for CD and fluorescence, was used. Experimental details: 1 cm cell pathlength, 500–310 nm emission scan, λexc 305 nm, and 5 nm excitation bandwidth.

Data set [2] deals with T1, α1-acid glycoprotein (AGP). The class given is binding. Here is the method:
(§1) The Hill fitting was performed with OriginLab.
(§2) The evaluation of molar enthalpies (ΔHm) and entropies (ΔSm) at the melting temperature for the melting process was calculated assuming a two-state native-to-unfolded model. The molar ratios at different temperatures were determined using the linear extrapolations of plateau at T >> Tm and T << Tm for the Boltzmann fitting curves, assuming that only denatured protein was present at T >> Tm and only native at T << Tm. The reversibility was assumed to be around Tm ± 5 °C, and the relative molar ratios for native and denatured species was used to determine the equilibrium constants and the associated Gibbs free energy (ΔGm, from ΔGm = −RT·lnK). Following the given relationship, ΔGm was supposed to be ~0 at the Tm (K^(Tm) ~ 1). ΔHm and ΔSm were calculated at Tm by interpolating with a linear model the ±5 °C region of the ΔGm vs. T curve around Tm, assuming the intercept corresponding to ΔHm, previous correction from °C to Kelvin, and the slope to −ΔSm, assuming a y = a − bx model, where ΔGm^(Tm) = ΔHm^(Tm) − TmΔSm^(Tm) at ΔGm^(Tm) = 0.
(§3) For the thermal denaturations, Boltzmann fitting with the equation y = y0 + A * (frac/(1 + exp ((x − x01)/k1)) + (1 − frac)/(1 + exp((x − x02)/k2))) was used. The SRCD spectra as a function of temperature were recorded with B23 module B with synchrotron operation at 300 or 350 mA, using rotating cell for thermal denaturation with 0.02 cm cell pathlength, 0.5 mm slit, 1 sec integration time, and 1 nm increment in the 260–180 nm spectral region.

Data set [3] deals with T1, α1-acid glycoprotein (AGP). The data set can be described thus: in vitro. Conditions: isolated α1-acid glycoprotein (AGP) in solution.
Protocol: SRCD single-spectra and UV denaturation experiments were recorded on the module B unit at B23 (Diamond Light Source, Didcot, UK) using a 6-cell sample turret. The following are the experimental parameters for UV denaturation: 30 scans, 260–180 nm range, 0.5 mm slit, 1 s integration time, 1 nm increment. The thermal denaturation experiments were performed with an Applied Photophysics (APL) ChirascanPlus spectropolarimeter. […] The baseline of water or buffer was subtracted from the CD spectra of proteins with or without ligands. Far-UV (180–250 nm) denaturation SRCD measurements were collected in 0.02 cm rotating cells with a 70 μL volume. Thermal denaturations were recorded with both B23 beamline and ChirascanPlus (APL, Leatherhead, UK). For CD titration, the protocol used was to measure the CD spectrum of each protein–ligand mixture at various ligand molar ratios by adding a small aliquot of ligand (few microliters of an appropriate concentration of ligand stock solution) to the protein in the cuvette cell. […] The same method was used for the titration via fluorescence spectroscopy.
The CD spectra were processed using CD Apps [27] and OriginPro. […] The evaluated parameters of melting temperature (Tm) were reported in °C and half-live (t1/2) for photo degradation in s (y = A1exp (−x/t1) + y0, t1/2 = t1log2). […]
Data set [4] concerns the target T2, human serum albumin (HSA) (Homo sapiens, UniProt P02768).
T2 construct: purchased Sigma A3782
The data set can be described thus: Thermal denaturation followed by CD at 191 nm. Type of data set: binding. Conditions: HSA with ligand. Here is the method: as §1, §2, §3

T2 sequence (P02768 25-609): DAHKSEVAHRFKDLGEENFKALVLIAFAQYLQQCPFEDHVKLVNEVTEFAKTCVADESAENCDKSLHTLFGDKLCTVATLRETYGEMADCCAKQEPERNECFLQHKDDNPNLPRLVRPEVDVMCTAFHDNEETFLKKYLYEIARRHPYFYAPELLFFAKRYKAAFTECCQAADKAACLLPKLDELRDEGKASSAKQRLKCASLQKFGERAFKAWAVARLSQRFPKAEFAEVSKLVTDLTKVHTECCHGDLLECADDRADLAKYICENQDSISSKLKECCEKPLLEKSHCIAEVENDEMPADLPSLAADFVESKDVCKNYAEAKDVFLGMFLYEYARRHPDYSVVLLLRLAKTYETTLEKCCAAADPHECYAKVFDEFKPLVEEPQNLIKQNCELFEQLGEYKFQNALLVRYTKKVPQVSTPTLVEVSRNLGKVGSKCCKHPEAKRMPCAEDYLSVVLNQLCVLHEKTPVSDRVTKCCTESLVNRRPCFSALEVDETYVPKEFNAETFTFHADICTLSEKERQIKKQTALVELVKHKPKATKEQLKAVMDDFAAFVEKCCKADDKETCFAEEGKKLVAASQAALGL
T1 sequence (P02763 19-201): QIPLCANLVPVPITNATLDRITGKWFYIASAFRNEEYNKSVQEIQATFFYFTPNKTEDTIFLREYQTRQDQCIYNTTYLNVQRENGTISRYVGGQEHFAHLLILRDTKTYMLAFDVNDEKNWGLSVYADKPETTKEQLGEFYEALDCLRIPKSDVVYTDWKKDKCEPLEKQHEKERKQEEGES

What is called Kd is the equilibrium constant for the complex coming apart. A lower Kd goes with higher affinity. The compound `Cc1c(N)nc([C@H](CC(N)=O)NC[C@H](N)C(N)=O)nc1C(=O)N[C@H](C(=O)N[C@H](C)[C@@H](O)[C@H](C)C(=O)N[C@H](C(=O)NCCc1nc(-c2nc(C(=O)NCCC[S+](C)C)cs2)cs1)[C@@H](C)O)[C@@H](O[C@@H]1O[C@@H](CO)[C@@H](O)[C@H](O)[C@@H]1O[C@H]1O[C@H](CO)[C@@H](O)[C@H](OC(N)=O)[C@@H]1O)c1c[nH]cn1` [A2, bleomycin A2] yielded a dissociation constant (Kd) in data set [1] of 13.2 µM.

As to `Cc1c(N)nc([C@H](CC(N)=O)NC[C@H](N)C(N)=O)nc1C(=O)N[C@H](C(=O)N[C@H](C)[C@@H](O)[C@H](C)C(=O)N[C@H](C(=O)NCCc1nc(-c2nc(C(=O)NCCCCNC(=N)N)cs2)cs1)[C@@H](C)O)[C@@H](O[C@@H]1O[C@@H](CO)[C@@H](O)[C@H](O)[C@@H]1O[C@H]1O[C@H](CO)[C@@H](O)[C@H](OC(N)=O)[C@@H]1O)c1c[nH]cn1` [B2, bleomycin B2], the “Tm (°C) [B]” value in data set [2] is 51.7 °C; in data set [4] (T at which ΔGm,Tm = 0, 191 nm, HSA alone 67.3), 62.2 °C. In addition, the “ΔHm, Tm” value came out at 122.3 kJ^.mol^−1 in data set [2] (AGP with ligand, linear fitting around Tm, AGP alone 127.8) and 91.0 kJ^.mol^−1 in data set [4] (linear fitting around Tm, HSA alone 85.8). Besides, the “ΔSm, Tm” value in data set [2] (AGP with ligand, linear fitting around Tm, AGP alone 392.1) turned out to be 376.5 J·K^−1·mol^−1; in data set [4] (linear fitting around Tm, HSA alone 252.3), 271.6 J·K^−1·mol^−1. The dissociation constant Kd came to 1370 nM in data set [3] and 13.7 µM in data set [1] (isolated α1-acid glycoprotein (AGP) in solution). Also, the “Tm (°C) [A]” value in data set [4] (Boltzmann fitting of experimental data, 191 nm, HSA alone 74.1) came out at 65.0 °C.
